Read-outs that look alike come from different tables or passages of the source.
What was measured:
[1] = read-out: Human plasma Cmax; total plasma Cmax.tot, median of 9 literature references; cited from earlier work
[2] = tested on: isolated mouse liver mitochondria; conditions: In vitro Assay; ref Porceddu 2012; cited from earlier work
hLiMTs [3] = conditions: cited from earlier work
[4] = tested on: THLE or HepG2 cells, isolated mitochondria, BSEP; conditions: cited from earlier work
[5] = cited from earlier work
PHH [6] = conditions: cited from earlier work
HepG2 cells [7] = conditions: cited from earlier work
[8] = Plasma free fraction (fu) and unbound Cmax (Cmax,u); type: in vitro ADME, human; conditions: unbound plasma Cmax
[9] = ref Chen 2011; cited from earlier work
[10] = tested on: THLE-Null and THLE-3A4 cells; conditions: In vitro Assay; ref Gustafsson 2014; cited from earlier work
HepG2 cells [11] = conditions: cited from earlier work; remark: listed apart in the source
HepG2 = tested on: HepG2; set-up: method as in Albrecht 2019; conditions: In vitro Assay; ref Albrecht 2019; cited from earlier work
HepaRG spheroids = assay: Combined HCI (HCS) and cellular ATP 3D assay in HepaRG spheroids; conditions: for AC50 / minimal effective concentration: Homo sapiens
PHH spheroids = conditions: cited from earlier work
[12] = cited from earlier work; remark: listed apart in the source
hLiMTs [13] = assay: Combined HCI (HCS) and cellular ATP 3D assay in hLiMTs; conditions: for AC50 / minimal effective concentration: Homo sapiens
[14] = plasma free fraction; cited from earlier work
rBsep = conditions: In vitro Assay; ref Dawson 2012; cited from earlier work
PHH [15] = conditions: In vitro Assay; ref Albrecht 2019; cited from earlier work
[16] = tested on: HepG2 C3A spheroid, BSEP, Glu/Gal in HepG2 cells, bioactivation; conditions: cited from earlier work
[17] = In vitro Assay, ref Proctor 2017
[18] = Modeled in vitro assays (cytotoxicity, mitochondrial dysfunction, BSEP), ref Aleo et al. 2019
[19] = In vitro Assay, ref Persson 2013
[20] = Microtissue model structural based (HCI), combined HCS and ATP, MEC < 25 × Cmax.tot cut-off

- Human plasma Cmax,u [8]: 6.508 µM
- HepaRG <25x Avg Cmax ATP (HepaRG spheroids; HepaRG, ATP endpoint, cut-off <25x Avg Cmax): +ve
- HepaRG <100x Avg Cmaxu ATP (HepaRG spheroids; HepaRG, ATP endpoint, cut-off <100x Avg Cmaxu): +ve (<100x Avg Cmaxu)
- HepaRG <25x Avg Cmax HCS (HepaRG spheroids; HepaRG, HCS endpoints, cut-off <25x Avg Cmax): +ve
- HepaRG <100x Avg Cmaxu HCS (HepaRG spheroids; HepaRG, HCS endpoints, cut-off <100x Avg Cmaxu): +ve (<100x Avg Cmaxu)
- HepaRG <25x Avg Cmax All (HepaRG spheroids; HepaRG, all endpoints (ATP and HCS), cut-off <25x Avg Cmax): +ve
- HepaRG Cmax max All (HepaRG spheroids; HepaRG, all endpoints, Cmax max used): +ve
- HepaRG Cmax min All (HepaRG spheroids; HepaRG, all endpoints, Cmax min used): +ve
- HepaRG <10 uM All (HepaRG spheroids; HepaRG, all endpoints, cut-off <10 uM): +ve (<10 uM)
- HepaRG <100x Avg Cmaxu All (HepaRG spheroids; HepaRG, all endpoints, cut-off <100x Avg Cmaxu): +ve (<100x Avg Cmaxu)
- hLiMTs <25x Avg Cmax ATP (hLiMTs [13]; hLiMTs, ATP endpoint, cut-off <25x Avg Cmax): +ve
- hLiMTs <100x Avg Cmaxu ATP (hLiMTs [13]; hLiMTs, ATP endpoint, cut-off <100x Avg Cmaxu): +ve (<100x Avg Cmaxu)
- hLiMTs <25x Avg Cmax HCS (hLiMTs [13]; hLiMTs, HCS endpoints, cut-off <25x Avg Cmax): +ve
- hLiMTs <100x Avg Cmaxu HCS (hLiMTs [13]; hLiMTs, HCS endpoints, cut-off <100x Avg Cmaxu): +ve (<100x Avg Cmaxu)
- hLiMTs <25x Avg Cmax All (hLiMTs [13]; hLiMTs, all endpoints (ATP and HCS), cut-off <25x Avg Cmax): +ve
- hLiMTs Cmax max All (hLiMTs [13]; hLiMTs, all endpoints, Cmax max used): +ve
- hLiMTs Cmax min All (hLiMTs [13]; hLiMTs, all endpoints, Cmax min used): +ve
- hLiMTs <10 uM All (hLiMTs [13]; hLiMTs, all endpoints, cut-off <10 uM): +ve (<10 uM)
- hLiMTs <100x Avg Cmaxu All (hLiMTs [13]; hLiMTs, all endpoints, cut-off <100x Avg Cmaxu): +ve (<100x Avg Cmaxu)
Compound: O=C1CN(/N=C/c2ccc([N+](=O)[O-])o2)C(=O)N1 [nitrofurantoin, reference compound]
- Cmax [1]: 21 µM
- in vitro data EC2<=1x Cmax [2]: +VE
- in vitro data EC20<=2uM [2]: -VE
- hLiMTs ATP <100uM (hLiMTs [3]; [17]): +VE (IC50 threshold of 100 µM)
- hLiMTs/100uM, Proctor (2017) (hLiMTs [3]; hLiMTs, ATP, IC50 threshold 100 µM, ref Proctor et al. 2017): +VE (IC50 threshold of 100 µM)
- Partition Hybrid HRM Score ([4]; In vitro Assay, ref Aleo 2019): +VE
- Ro2 Hybrid HRM Score ([4]; In vitro Assay, ref Aleo 2019): +VE
- Partition Hybrid HRM Score ≥4, Aleo (2019) [4, 18]: +VE (Partition Hybrid HRM Score ≥4)
- Partition Hybrid HRM Score ≥8, Aleo (2019) [4, 18]: -VE
- Rule of Two hybrid HRM Score ≥3, Aleo (2019) [4, 18]: +VE (Rule of Two hybrid HRM Score ≥3)
- Rule of Two hybrid HRM Score ≥8, Aleo (2019) [4, 18]: -VE
- DILI severity category (Chen et al. [2016]) ([5]; LTKB DILIrank category, ref Chen et al. 2016): Most
- DILI severity category (Chen 2016) ([5]; human DILI classification, LTKB DILIrank, ref Chen et al. 2016): Most
- DILI severity category ([5]; human DILI severity, ref Chen et al.): Most
- DILI +VE (5-8), DILI -VE (-4) ([5]; ref Chen 2016): +VE
- DILI severity category ([5]; ref Chen 2016): vMost-DILI-Concern
- PHH/100uM, Proctor (2017) (PHH [6]; 2D PHH, ATP, IC50 threshold 100 µM, ref Proctor et al. 2017): +VE (IC50 threshold of 100 µM)
- PHH ATP <100uM (PHH [6]; [17]): +VE (IC50 threshold of 100 µM)
- Structural based (HCI) (HepG2 cells [7]; In vitro Assay, ref O'Brien 2006): +VE
- DILI in vitro assay prediction, O'Brien (2006) (HepG2 cells [7]; Structural based (HCI), HepG2, ref O'Brien et al. 2006): +VE (lowest HCI endpoint IC50 (or in the absence of dose–response < 100 µM) < 30 × total human plasma exposure levels (Cmax.tot))
- DILI Score (FDA) (1-8) [9]: 8
- THLE-Null [10]: -VE
- Cluser analysis (HepG2 cells [11]; [19]): -VE
- Structural based (HCI) (HepG2 cells [11]; [19]): +VE
- DILI in vitro assay prediction, Persson (2013) (HepG2 cells [11]; Structural based (HCI), HepG2, ref Persson et al. 2013): -VE
- Cytotoxicity HepG2 48 hrs (HepG2): +VE
- AC50 (HepaRG spheroids; HepaRG, read-out: ATP endpoint AC50): 11.6 µM
- minimal effective concentration (HepaRG spheroids; HepaRG, read-out: ATP endpoint MEC): 9.27 µM
- AC50 (HepaRG spheroids; HepaRG, read-out: HCS endpoint AC50): 17.5 µM
- minimal effective concentration (HepaRG spheroids; HepaRG, read-out: HCS endpoint MEC): 5.59 µM
- DILI prediction HepaRG spheroids (HCS-MEC) (HepaRG spheroids; [20]): +VE (MEC < 25 × Cmax.tot cut-off)
- hLiMTs ATP <20 x Cmax (PHH spheroids; In vitro Assay, ref Vorrink 2018): +VE (IC20 < 20 × Cmax.tot cut-off)
- DILI in vitro assay prediction, Vorrink (2018) (PHH spheroids; PHH spheroids, ATP, 14 days, IC20 < 20 × Cmax.tot, ref Vorrink et al. 2018): +VE (IC20 < 20 × Cmax.tot cut-off)
- Assigned DILI category ([12]; Chen et al. 2016 or literature alignment, ref Chen et al. 2016): 3
- In vivo DILI ([12]; […]): +VE
- In vivo DILI ([12]; ref Albrecht 2019): +VE
- In vivo DILI ([12]; ref Aleo 2019): +VE
- In vivo DILI ([12]; ref Dawson 2012): +VE
- In vivo DILI ([12]; ref Garside 2014): +VE
- In vivo DILI ([12]; ref Gustafsson 2014): +VE
- In vivo DILI ([12]; ref O'Brien 2006): +VE
- In vivo DILI ([12]; ref Persson 2013): +VE
- In vivo DILI ([12]; ref Porceddu 2012): +VE
- In vivo DILI ([12]; ref Proctor 2017): +VE
- In vivo DILI ([12]; ref Vorrink 2018): +VE
- In vivo DILI ([12]; ref Williams 2019): +VE
- AC50 (hLiMTs [13]; read-out: ATP endpoint AC50): 11.7 µM
- minimal effective concentration (hLiMTs [13]; read-out: ATP endpoint MEC): 3.21 µM
- AC50 (hLiMTs [13]; read-out: HCS endpoint AC50): 73.6 µM
- minimal effective concentration (hLiMTs [13]; read-out: HCS endpoint MEC): 19.4 µM
- DILI prediction hLiMTs (HCS-MEC) (hLiMTs [13]; [20]): +VE (MEC < 25 × Cmax.tot cut-off)
- fu [14]: 0.310
- Inhibition of rBsep cutoff<1& cmax u>.2 (rBsep): -VE
- Inhibition of rBsep cutoff<3 (rBsep): -VE
- Cytotoxicity PHH 48 hrs (PHH [15]): +VE
- Bayesian Machine Learning DILI prediction, Williams (2019) ([16]; Bayesian modeling, ref Williams et al. 2019): +VE
- Bayesian Machine Learning ([16]; In vitro Assay, ref Williams 2019): +VE

— publication PMC7395068, “The evolution of strategies to minimise the risk of human drug-induced liver injury (DILI) in drug discovery and development” (Archives of Toxicology, 2020)
